Measured values: ChEMBL document CHEMBL1201862, “PubChem BioAssay data set” (2004)
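Briefly, cells in 96-well plates were exposed to five compound concentrations for 48 h, and endpoints were estimated by linear interpolation. GI50 is the concentration that inhibits growth by half.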 Active and inactive are the calls of the source. No stated cut-off is given here; in the data, active = GI50 up to about 1.1 µM and inactive = higher.

What was measured:
Test in all cases: growth of human tumour cells (NCI), 48 h
[1] = tested on: SW-620
[2] = tested on: SNB-75
[3] = tested on: RXF 393
[4] = tested on: A498
[5] = tested on: OVCAR-4
[6] = tested on: TK-10
[7] = tested on: K562
[8] = tested on: UACC-62
[9] = tested on: U-251
[10] = tested on: MCF7
[11] = tested on: MDA-MB-435
[12] = tested on: COLO 205
[13] = tested on: NCI-H460
[14] = tested on: HL-60
[15] = tested on: EKVX
[16] = tested on: NCI-H522
[17] = tested on: MDA-MB-231
[18] = tested on: HCT-116
[19] = tested on: UACC-257
[20] = tested on: 786-0

| Structure (SMILES) | GI50 [1] | GI50 [2] | GI50 [3] | GI50 [4] | GI50 [5] | GI50 [6] | GI50 [7] | GI50 [8] | GI50 [9] | GI50 [10] | GI50 [11] | GI50 [12] | GI50 [13] | GI50 [14] | GI50 [15] | GI50 [16] | GI50 [17] | GI50 [18] | GI50 [19] | GI50 [20] |
| --- | --- | --- | --- | --- | --- | --- | --- | --- | --- | --- | --- | --- | --- | --- | --- | --- | --- | --- | --- | --- |
| O=C(c1ccc(Cl)cc1)N(Cc1cccnc1)C(=S)N(Cc1cccnc1)C(=O)c1ccc(Cl)cc1 | 40.5 µM (inactive) | 37.1 µM (inactive) | 43.6 µM (inactive) | 30.5 µM (inactive) | 23.6 µM (inactive) | 53 µM (inactive) | 22.9 µM (inactive) | 24.3 µM (inactive) | 22.7 µM (inactive) | 29.7 µM (inactive) | 40.2 µM (inactive) | 20.5 µM (inactive) | 44.2 µM (inactive) | 33.2 µM (inactive) | 50.8 µM (inactive) | 24.2 µM (inactive) | 26.5 µM (inactive) | 27.1 µM (inactive) | 33.6 µM (inactive) | 21.1 µM (inactive) |
| CCOC(=O)C1OC(C2(C)OC3(OC4(C=CC3O)OC(C(C)C(=O)C(C)C(O)C(C)CC(C)c3c(Cl)cc(C)c(O)c3C(=O)O)C(C)CC4C)C(C)C2OC)CC1O (centres undefined) | 0.251 µM (active) | 0.163 µM (active) | 0.647 µM (active) | 0.46 µM (active) | 0.544 µM (active) | 2.34 µM (inactive) | 0.505 µM (active) | 0.27 µM (active) | 0.189 µM (active) | 0.181 µM (active) | 0.286 µM (active) | 0.818 µM (active) | 0.0826 µM (active) | 0.542 µM (active) | 1.09 µM (active) | < 0.0803 µM (active) | 1.15 µM (inactive) | 0.693 µM (active) | 0.577 µM (active) | 0.454 µM (active) |
| FC(F)(F)c1ccc2c(-c3cc[nH]c3)ccnc2c1 | 36.1 µM (inactive) | 14.4 µM (inactive) | 22.5 µM (inactive) | 23.8 µM (inactive) | 53.2 µM (inactive) | 28.6 µM (inactive) | 30 µM (inactive) | > 100 µM (inactive) | 44.3 µM (inactive) | 30.8 µM (inactive) | 35 µM (inactive) | 23.6 µM (inactive) | 33.7 µM (inactive) | 16.7 µM (inactive) | 33 µM (inactive) | 32.4 µM (inactive) | 40.1 µM (inactive) | 32.5 µM (inactive) | 31.4 µM (inactive) | 17.7 µM (inactive) |
| Cc1ccc2c(=O)c(-c3nnsn3)c[nH]c2n1 | > 100 µM (inactive) | – | > 100 µM (inactive) | > 100 µM (inactive) | > 100 µM (inactive) | > 100 µM (inactive) | > 100 µM (inactive) | > 100 µM (inactive) | > 100 µM (inactive) | > 100 µM (inactive) | > 100 µM (inactive) | > 100 µM (inactive) | > 100 µM (inactive) | > 100 µM (inactive) | > 100 µM (inactive) | > 100 µM (inactive) | > 100 µM (inactive) | > 100 µM (inactive) | > 100 µM (inactive) | > 100 µM (inactive) |
| COc1ccc(OCC(=N/NC(=O)c2ccncc2)/N=C/c2ccncc2)cc1 | 53.5 µM (inactive) | – | 36.3 µM (inactive) | 59.3 µM (inactive) | > 100 µM (inactive) | > 100 µM (inactive) | 57.9 µM (inactive) | 53.6 µM (inactive) | > 100 µM (inactive) | 54.6 µM (inactive) | 22.6 µM (inactive) | 74 µM (inactive) | > 100 µM (inactive) | 57.9 µM (inactive) | > 100 µM (inactive) | 32.2 µM (inactive) | > 100 µM (inactive) | 83.9 µM (inactive) | > 100 µM (inactive) | > 100 µM (inactive) |
| COc1cccc(OC)c1C1ON=C(c2ccccc2)N1C12CC3CC(CC(C3)C1)C2 (centres undefined) | > 100 µM (inactive) | 20.7 µM (inactive) | 1.2 µM (inactive) | > 100 µM (inactive) | – | 36.6 µM (inactive) | > 100 µM (inactive) | > 100 µM (inactive) | 30.1 µM (inactive) | > 100 µM (inactive) | > 100 µM (inactive) | > 100 µM (inactive) | > 100 µM (inactive) | 1.87 µM (inactive) | > 100 µM (inactive) | 31 µM (inactive) | > 100 µM (inactive) | 51.2 µM (inactive) | > 100 µM (inactive) | 42.1 µM (inactive) |
| Cc1cccc(NC2=NCCO2)c1Cl | > 100 µM (inactive) | > 100 µM (inactive) | > 100 µM (inactive) | > 100 µM (inactive) | > 100 µM (inactive) | > 100 µM (inactive) | > 100 µM (inactive) | > 100 µM (inactive) | > 100 µM (inactive) | > 100 µM (inactive) | > 100 µM (inactive) | > 100 µM (inactive) | > 100 µM (inactive) | > 100 µM (inactive) | > 100 µM (inactive) | – | > 100 µM (inactive) | > 100 µM (inactive) | > 100 µM (inactive) | > 100 µM (inactive) |
| O=C1OC(c2ccccc2)=N/C1=C\c1ccc(N(CCCl)CCCl)cc1 | > 100 µM (inactive) | > 100 µM (inactive) | 42 µM (inactive) | > 100 µM (inactive) | > 100 µM (inactive) | > 100 µM (inactive) | 16.5 µM (inactive) | > 100 µM (inactive) | > 100 µM (inactive) | 39.9 µM (inactive) | > 100 µM (inactive) | > 100 µM (inactive) | > 77.4 µM (inactive) | 45.4 µM (inactive) | > 100 µM (inactive) | 21.3 µM (inactive) | > 100 µM (inactive) | > 100 µM (inactive) | > 100 µM (inactive) | > 94 µM (inactive) |
| CCCC1C(C#N)(C#N)C(C#N)=C(N)C1(C)C(C)=O (centres undefined) | > 100 µM (inactive) | 4.42 µM (inactive) | 71 µM (inactive) | > 100 µM (inactive) | – | > 100 µM (inactive) | 37.3 µM (inactive) | > 100 µM (inactive) | > 100 µM (inactive) | > 100 µM (inactive) | > 100 µM (inactive) | 65 µM (inactive) | – | 31.8 µM (inactive) | > 100 µM (inactive) | 52.8 µM (inactive) | > 100 µM (inactive) | 73.1 µM (inactive) | 86.9 µM (inactive) | 53.3 µM (inactive) |
| Oc1ccc2ccccc2c1CCc1c(O)ccc2ccccc12 | 14.2 µM (inactive) | 3.66 µM (inactive) | 11.7 µM (inactive) | 18.5 µM (inactive) | – | 18.6 µM (inactive) | 7.55 µM (inactive) | 9.29 µM (inactive) | 13.3 µM (inactive) | 12.7 µM (inactive) | 12.8 µM (inactive) | 15.7 µM (inactive) | 10.4 µM (inactive) | 22.8 µM (inactive) | 13.4 µM (inactive) | – | 14.1 µM (inactive) | 12.6 µM (inactive) | 13.9 µM (inactive) | 16.2 µM (inactive) |
| O=C1C2=C(CC3=C(C2)CS(=O)(=O)C3)C(=O)C2=C1CC1=C(C2)CS(=O)(=O)C1 | 18 µM (inactive) | > 20.9 µM (inactive) | 27.3 µM (inactive) | 43.7 µM (inactive) | 10.9 µM (inactive) | 48.9 µM (inactive) | 10.6 µM (inactive) | 15.8 µM (inactive) | 13.5 µM (inactive) | 13.2 µM (inactive) | 9.18 µM (inactive) | 13 µM (inactive) | > 31.5 µM (inactive) | 8.93 µM (inactive) | 33.2 µM (inactive) | 11.3 µM (inactive) | 9.59 µM (inactive) | 11.7 µM (inactive) | 29 µM (inactive) | 25.9 µM (inactive) |
| CC1(CCCC2(C)CCNC2=O)OCCO1 (centres undefined) | > 10 µM (inactive) | > 10 µM (inactive) | > 10 µM (inactive) | > 10 µM (inactive) | > 10 µM (inactive) | > 10 µM (inactive) | > 10 µM (inactive) | > 10 µM (inactive) | > 10 µM (inactive) | > 10 µM (inactive) | > 10 µM (inactive) | > 10 µM (inactive) | > 10 µM (inactive) | > 10 µM (inactive) | > 10 µM (inactive) | – | > 10 µM (inactive) | > 10 µM (inactive) | > 10 µM (inactive) | > 10 µM (inactive) |
| CN(C)CCN1C(=O)CC[C@@]2(C)C1=CC[C@@H]1[C@@H]2CC[C@@]2(C)[C@H]1CC[C@]2(C)O | > 100 µM (inactive) | > 100 µM (inactive) | > 100 µM (inactive) | > 100 µM (inactive) | > 100 µM (inactive) | > 100 µM (inactive) | > 100 µM (inactive) | > 100 µM (inactive) | > 100 µM (inactive) | > 100 µM (inactive) | > 100 µM (inactive) | > 100 µM (inactive) | > 100 µM (inactive) | > 100 µM (inactive) | > 100 µM (inactive) | > 100 µM (inactive) | > 100 µM (inactive) | 71.6 µM (inactive) | > 100 µM (inactive) | > 100 µM (inactive) |
| CC1(C)[C@@H]2CC[C@@]1(C)[C@@H]1O[C@@H](O[C@@H](CN)c3cc(Cl)c(OCc4ccccc4)c(OCc4ccccc4)c3)C[C@H]21 | 0.191 µM (active) | 0.163 µM (active) | 0.15 µM (active) | 0.199 µM (active) | 0.162 µM (active) | 0.177 µM (active) | 0.156 µM (active) | – | 0.158 µM (active) | 0.134 µM (active) | 0.162 µM (active) | 0.11 µM (active) | – | 0.177 µM (active) | 0.166 µM (active) | 0.186 µM (active) | 0.155 µM (active) | 0.15 µM (active) | 0.175 µM (active) | 0.181 µM (active) |
